Assay results as given in patent US20140357662A1, “THIENO (2,3 - C) PYRAZOLES FOR USE AS POTASSIUM CHANNEL INHIBITORS” (XENTION LIMITED, priority 2011, published 2014).

Molecular target: T1, rat Kir3.1/3.4 (Rattus norvegicus, UniProt P48548+P63251)
T1 construct: expressed in transfected cells; host or cells: HEK293 (Human Embryonic Kidney 293), stably transfected
T1 sequence (P63251 1-501): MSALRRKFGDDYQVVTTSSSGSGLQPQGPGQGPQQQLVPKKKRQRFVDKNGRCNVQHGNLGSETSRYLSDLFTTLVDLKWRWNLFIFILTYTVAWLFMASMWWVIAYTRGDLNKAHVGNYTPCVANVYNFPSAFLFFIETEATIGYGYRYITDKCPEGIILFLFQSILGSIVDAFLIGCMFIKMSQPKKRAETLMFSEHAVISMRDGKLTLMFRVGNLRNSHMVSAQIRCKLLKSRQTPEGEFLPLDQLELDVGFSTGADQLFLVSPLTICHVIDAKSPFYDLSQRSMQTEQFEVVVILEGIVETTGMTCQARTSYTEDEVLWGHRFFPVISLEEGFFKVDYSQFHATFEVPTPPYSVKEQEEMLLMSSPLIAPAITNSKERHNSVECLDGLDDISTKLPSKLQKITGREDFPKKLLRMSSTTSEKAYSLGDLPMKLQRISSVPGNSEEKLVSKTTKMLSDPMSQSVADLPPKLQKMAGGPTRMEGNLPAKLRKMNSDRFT
T1 sequence (P48548 1-419): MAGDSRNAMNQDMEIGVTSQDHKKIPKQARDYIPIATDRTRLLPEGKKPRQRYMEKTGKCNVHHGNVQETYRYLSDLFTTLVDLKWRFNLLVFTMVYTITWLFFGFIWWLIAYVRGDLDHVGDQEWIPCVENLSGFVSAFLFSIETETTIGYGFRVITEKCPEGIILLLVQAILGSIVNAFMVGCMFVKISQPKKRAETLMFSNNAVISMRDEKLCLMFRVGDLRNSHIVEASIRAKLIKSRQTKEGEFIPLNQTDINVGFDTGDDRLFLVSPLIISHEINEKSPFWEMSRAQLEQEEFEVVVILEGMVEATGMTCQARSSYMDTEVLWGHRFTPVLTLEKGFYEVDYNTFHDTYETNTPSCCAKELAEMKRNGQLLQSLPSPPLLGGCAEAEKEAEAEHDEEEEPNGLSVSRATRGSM
Assay: Kir3.1/3.4 Electrophysiology Method (manual whole-cell patch clamp)
Assay type: cell-based
Conditions: Human Embryonic Kidney 293 stably transfected with rat Kir3.1/3.4; inhibition of leak-subtracted current at -140 mV
Protocol: Compound activity against the recombinant G-protein activated inward rectifier current encoded by the heterotetramer Kir3.1/3.4 was assessed using manual whole-cell patch technique. The heterotetramer forms the pore-forming channel that conducts the acetylcholine/adenosine-activated potassium current in the heart.
For whole-cell patch-clamp studies, cells (Human Embryonic Kidney 293 stably transfected with rat Kir3.1/3.4) were seeded onto glass coverslips before recordings were made. Cells were seeded in sterile 30 mm Petri dishes at a density to enable isolated cells to be selected for patch clamp experiments. The dishes were stored in a humidified, gassed (5% CO2) incubator at 37° C. until use.
Whole-cell patch-clamp recordings of membrane currents were made following gigaohm seal formation between the patch electrode and the cell using HEKA EPC-9/10 amplifiers controlled by Pulse Software (Ver8.5x/8.6x/8.7x, HEKA, Germany). Coverslips seeded with cells were placed in a recording chamber mounted on the stage of an inverted microscope. During the experiment, the cell of interest was continuously superfused with bather solution delivered via a cannula placed in close proximity to the cell to enable control of the extracellular solution environment. Only those cells with a current <−500 pA (current at −140 mV) were used for experiments. During experiments, series resistance was compensated by a minimum of 70%.
Electrophysiology voltage-step protocols and analysis of data were performed as follows. Data was sampled at 5 kHz, and filtered with a −3 dB bandwidth of 2.5 kHz. Cells were held at a voltage of −60 mV. Currents were evoked by a depolarising voltage step to +60 mV (100 ms) before a ramp-repolarisation (0.4 V·s^−1) to −140 mV (100 ms) before returning to −60 mV. The command waveform was repeatedly applied every 10 s throughout the experiment. Mean currents during 1-99% of the time at −140 mV were analysed using Pulsefit software (v8.x, HEKA, Germany). The voltage protocol was repeatedly applied to achieve a stable current baseline in bather before the test substance was superfused via the cannula in close proximity to the cell under investigation. The test substance was allowed to equilibrate during which time voltage protocol was repeatedly applied and recorded. On reaching steady-state inhibition, the cell was superfused with an identical bather solution containing zero external potassium chloride (replaced by equimolar NaCl). The identical current measurement was made in the absence of potassium to assess the passive leak at −140 mV. The leak current was subtracted from the control and steady-state drug current values. The percentage inhibition of the leak-subtracted current in the presence of test substance was calculated relative to the control leak-subtracted pre-drug value. Internal patch-pipette solution contained in mM: 110 KCl, 20 NaCl, 0.9 GTPγS, 5 Mg-ATP, 5 EGTA, 10 HEPES, pH7.2 corrected with KOH. The external superfusate composition in mM was: 150 (or 160) NaCl, 10 (or 0) KCl, 3 CaCl2, 1 MgCl, 10 HEPES, pH 7.4 corrected with NaOH.

Row | Compound | IC50 [nM]
1 | c1ccc(-c2csc3[nH]nc(N4CCC(COCCN5CCCC5)CC4)c23)cc1 [Compound 1, 4-phenyl-3-[4-(2-pyrrolidin-1-ylethoxymethyl)-1-piperidyl]-1H-thieno[2,3-c]pyrazole] | < 500
2 | Brc1sc2[nH]nc(N3CC4CC3CC4OCCN3CCCC3)c2c1-c1ccccc1 (stereo not drawn) [Compound 2, 5-bromo-4-phenyl-3-[5-(2-pyrrolidin-1-ylethoxy)-2-azabicyclo[2.2.1]heptan-2-yl]-1H-thieno[2,3-c]pyrazole] | < 500
3 | N#Cc1sc2[nH]nc(N3CCC(COCCN4CCCC4)CC3)c2c1-c1ccccc1 [Compound 3, 4-phenyl-3-[4-(2-pyrrolidin-1-ylethoxymethyl)-1-piperidyl]-1H-thieno[2,3-c]pyrazole-5-carbonitrile] | < 500
4 | c1ccc(-c2csc3[nH]nc(N4CC5CC4CC5OCCN4CCCC4)c23)cc1 (stereo not drawn) [Compound 4, 4-phenyl-3-[5-(2-pyrrolidin-1-ylethoxy)-2-azabicyclo[2.2.1]heptan-2-yl]-1H-thieno[2,3-c]pyrazole] | < 500
5 | Fc1ccc(-c2csc3[nH]nc(N4CC5CC4CC5OCCN4CCCC4)c23)cc1 (stereo not drawn) [Compound 5, 4-(4-fluorophenyl)-3-[5-(2-pyrrolidin-1-ylethoxy)-2-azabicyclo[2.2.1]heptan-2-yl]-1H-thieno[2,3-c]pyrazole] | < 500
6 | c1ccc(-c2csc3[nH]nc(N4C5CCC4CC(COCCN4CCCC4)C5)c23)cc1 (stereo not drawn) [Compound 6, 4-phenyl-3-[3-(2-pyrrolidin-1-ylethoxymethyl)-8-azabicyclo[3.2.1]octan-8-yl]-1H-thieno[2,3-c]pyrazole] | < 500
7 | c1ccc(-c2csc3[nH]nc(N4C5CCC4CC(OCCN4CCCC4)C5)c23)cc1 (stereo not drawn) [Compound 7, 4-phenyl-3-[3-(2-pyrrolidin-1-ylethoxy)-8-azabicyclo[3.2.1]octan-8-yl]-1H-thieno[2,3-c]pyrazole] | < 500
8 | c1ccc(-c2csc3[nH]nc(N4CCCC(COCCN5CCCC5)C4)c23)cc1 (stereo not drawn) [Compound 8, 4-phenyl-3-[3-(2-pyrrolidin-1-ylethoxymethyl)-1-piperidyl]-1H-thieno[2,3-c]pyrazole] | < 500
9 | c1ccc(-c2csc3[nH]nc(N4CCC(COCCN5CCCC5)C4)c23)cc1 (stereo not drawn) [Compound 9, 4-phenyl-3-[3-(2-pyrrolidin-1-ylethoxymethyl)pyrrolidin-1-yl]-1H-thieno[2,3-c]pyrazole] | < 500
10 | c1ccc(-c2csc3[nH]nc(N4C5CCC4CC(NC4CCC4)C5)c23)cc1 (stereo not drawn) [Compound 10, N-cyclobutyl-8-(4-phenyl-1H-thieno[2,3-c]pyrazol-3-yl)-8-azabicyclo[3.2.1]octan-3-amine] | < 500
11 | c1ccc(-c2csc3[nH]nc(N4C5CCC4CC(N4CCC4)C5)c23)cc1 (stereo not drawn) [Compound 11, 3-[3-(azetidin-1-yl)-8-azabicyclo[3.2.1]octan-8-yl]-4-phenyl-1H-thieno[2,3-c]pyrazole] | 500 to 3000
12 | CC(C)NC1CC2CCC(C1)N2c1n[nH]c2scc(-c3ccccc3)c12 (stereo not drawn) [Compound 12, N-isopropyl-8-(4-phenyl-1H-thieno[2,3-c]pyrazol-3-yl)-8-azabicyclo[3.2.1]octan-3-amine] | 500 to 3000
13 | CC(=O)n1nc(N2CCC(COCCN3CCCC3)CC2)c2c(-c3ccccc3)csc21 [Compound 13, 1-[4-phenyl-3-[4-(2-pyrrolidin-1-ylethoxymethyl)-1-piperidyl]thieno[2,3-c]pyrazol-1-yl]ethanone] | < 500
14 | CC(=O)n1nc(N2CC3CC2CC3OCCN2CCCC2)c2c(-c3ccccc3)csc21 (stereo not drawn) [Compound 14, 1-[4-phenyl-3-[5-(2-pyrrolidin-1-ylethoxy)-2-azabicyclo[2.2.1]heptan-2-yl]thieno[2,3-c]pyrazol-1-yl]ethanone] | < 500
15 | CC(=O)n1nc(N2CC3CC2CC3OCCN2CCCC2)c2c(-c3ccc(F)cc3)csc21 (stereo not drawn) [Compound 15, 1-[4-(4-fluorophenyl)-3-[5-(2-pyrrolidin-1-ylethoxy)-2-azabicyclo[2.2.1]heptan-2-yl]thieno[2,3-c]pyrazol-1-yl]ethanone] | < 500
16 | CS(=O)(=O)n1nc(N2CC3CC2CC3OCCN2CCCC2)c2c(-c3ccc(F)cc3)csc21 (stereo not drawn) [Compound 16, 4-(4-fluorophenyl)-1-methylsulfonyl-3-[5-(2-pyrrolidin-1-ylethoxy)-2-azabicyclo[2.2.1]heptan-2-yl]thieno[2,3-c]pyrazole] | < 500
17 | CC(=O)n1nc(N2C3CCC2CC(OCCN2CCCC2)C3)c2c(-c3ccccc3)csc21 (stereo not drawn) [Compound 17, 1-[4-phenyl-3-[3-(2-pyrrolidin-1-ylethoxy)-8-azabicyclo[3.2.1]octan-8-yl]thieno[2,3-c]pyrazol-1-yl]ethanone] | < 500
18 | CC(=O)n1nc(N2CCCC(COCCN3CCCC3)C2)c2c(-c3ccccc3)csc21 (stereo not drawn) [Compound 18, 1-[4-phenyl-3-[3-(2-pyrrolidin-1-ylethoxymethyl)-1-piperidyl]thieno[2,3-c]pyrazol-1-yl]ethanone] | < 500
19 | CC(=O)n1nc(N2CCC(COCCN3CCCC3)C2)c2c(-c3ccccc3)csc21 (stereo not drawn) [Compound 19, 1-[4-phenyl-3-[3-(2-pyrrolidin-1-ylethoxymethyl)pyrrolidin-1-yl]thieno[2,3-c]pyrazol-1-yl]ethanone] | < 500
20 | CS(=O)(=O)n1nc(N2CCC(COCCN3CCCC3)CC2)c2c(-c3ccccc3)csc21 [Compound 20, 1-methylsulfonyl-4-phenyl-3-[4-(2-pyrrolidin-1-ylethoxymethyl)-1-piperidyl]thieno[2,3-c]pyrazole] | < 500
21 | Cn1nc(N2CCC(COCCN3CCCC3)CC2)c2c(-c3ccccc3)csc21 [Compound 21, 1-methyl-4-phenyl-3-[4-(2-pyrrolidin-1-ylethoxymethyl)-1-piperidyl]thieno[2,3-c]pyrazole] | < 500
22 | CN(C)C(=O)c1sc2c(c(N3CCC(COCCN4CCCC4)CC3)nn2C)c1-c1ccccc1 [Compound 22, N,N,1-trimethyl-4-phenyl-3-[4-(2-pyrrolidin-1-ylethoxymethyl)-1-piperidyl]thieno[2,3-c]pyrazole-5-carboxamide] | 500 to 3000
23 | CN(C)C(=O)c1sc2[nH]nc(N3CCC(COCCN4CCCC4)CC3)c2c1-c1ccccc1 [Compound 23, N,N-dimethyl-4-phenyl-3-[4-(2-pyrrolidin-1-ylethoxymethyl)-1-piperidyl]-1H-thieno[2,3-c]pyrazole-5-carboxamide] | 500 to 3000
24 | CC(C)NC(=O)c1sc2[nH]nc(N3CCC(COCCN4CCCC4)CC3)c2c1-c1ccccc1 [Compound 24, N-isopropyl-4-phenyl-3-[4-(2-pyrrolidin-1-ylethoxymethyl)-1-piperidyl]-1H-thieno[2,3-c]pyrazole-5-carboxamide] | < 500
